Results published in ChEMBL document CHEMBL1147297, “4-Hydroxy-25-desoxyneorollinicin, a new bistetrahydrofuranoid acetogenin from Rollinia papilionella” (1989).

Assays:
Assay type in all cases: functional
[1] = test system: MCF7; assay: Cytotoxicity against human MCF7 cells; conditions: read-out: ED50 (the source's name)
[2] = test system: A549; assay: Cytotoxicity against human A549 cells; conditions: read-out: ED50 (the source's name)
[3] = test system: P388; assay: Cytotoxicity against mouse P388 cells

| SMILES | EC50 [1] | EC50 [2] | ED50 [3] |
| --- | --- | --- | --- |
| CCCCCCCCCC[C@@H](O)[C@@H]1CC[C@H]([C@H]2CC[C@@H]([C@@H](O)CCCCCCCCCCC(O)CC3=CC(C)OC3=O)O2)O1 (stereo partly drawn) | < 1 ng/mL | < 1 ng/mL |  |
| CCCCCCCCC[C@@H](O)[C@@H](O)[C@@H]1CC[C@@H]([C@@H]2CC[C@@H]([C@@H](O)CCCCCCCCCCCCC3=CC(C)OC3=O)O2)O1 (stereo partly drawn) [ROLLINICIN] |  |  | 2.9 ×10⁻⁸ ug/ml |
